Experimental data from paper PMC9942140 (Journal of medicinal chemistry, 2022).

Biological target: T1, hepatocyte nuclear factor 4α (HNF4α) (Homo sapiens, UniProt P41235)
T1 sequence (P41235 147-377): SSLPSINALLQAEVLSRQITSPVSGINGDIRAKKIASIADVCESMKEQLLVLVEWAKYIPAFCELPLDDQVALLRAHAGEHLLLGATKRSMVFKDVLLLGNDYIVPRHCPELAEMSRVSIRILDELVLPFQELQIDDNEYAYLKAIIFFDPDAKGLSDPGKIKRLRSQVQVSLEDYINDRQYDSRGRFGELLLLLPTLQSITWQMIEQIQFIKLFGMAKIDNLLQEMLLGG
Assay: intrinsic tyrosine/tryptophan fluorescence quenching titration of purified LBD
Assay type: binding

Kd: 312 nM
Compound: COc1cc(C)c(C(C)C)cc1S(=O)(=O)N(CC(O)Cn1nnnc1-c1ccccn1)c1ccccc1C (racemic) [compound 33, N-(2-Hydroxy-3-(5-(pyridin-2-yl)-1H-tetrazol-1-yl)propyl)-5-isopropyl-2-methoxy-4-methyl-N-(o-tolyl)benzenesulfonamide]
